Results on 7 molecules are retold here after patent publication US12642791B2, “Inhibitors of lysyl oxidases” (UNIVERSITY OF SOUTH CAROLINA, priority 2021, dated 2026).

Data set [1] concerns kidney fibrosis, lung fibrosis, myelofibrosis and pancreatic cancer models. To be noted: in vivo; cited from earlier work.
The conditions of data set [2]: human, in vivo; cited from earlier work.
Data set [3] relates to cellular lysyl oxidase (LOX) activity, MDA-MB-231 cells. The data set is described as follows: Cell-based lysyl oxidase activity assay (Abcam kit). Also on record: species or system human. To be noted: read-out: cellular LOX activity. From the text: As the available LOX inhibitors are either not very potent or have toxicity, the inventors developed a robust screening pipeline shown in FIG. 28 to identify potent and safe LOX-specific and pan-LOX inhibitors. Briefly, a high-throughput cell-based LOX activity (Abcam) screen (HTS) was done for more than 5,000 drug-like compounds from the EXPRESS-Pick diversified library (4,480 molecules, ChemBridge) and Tocriscreen library of bioactive compounds (1,280 compounds, Tocris), each at a single concentration of 10 μM. […] The toxic molecules were counter screened with cell cytotoxicity assay and filtered out.
FIGS. 34. […] IC50 for cellular lysyl oxidase activity upon treatment of MDA-MB-231 cells with different LOX inhibitors. uM=microM.
For cell-based lysyl oxidase activity, fluorometric Lysly Oxidase Activity Assay Kit (Abcam, USA) was used according to manufacturer's instructions. Briefly, after the treatment, 50 μl of supernatant from each well was incubated with reagent mix and fluorescence measured in multimode-reader at Ex/Em=540/590 nm wavelength.

Data set [4] has as its target T1, LOXL2 (Homo sapiens, UniProt Q9Y4K0).
T1 sequence (Q9Y4K0 26-774): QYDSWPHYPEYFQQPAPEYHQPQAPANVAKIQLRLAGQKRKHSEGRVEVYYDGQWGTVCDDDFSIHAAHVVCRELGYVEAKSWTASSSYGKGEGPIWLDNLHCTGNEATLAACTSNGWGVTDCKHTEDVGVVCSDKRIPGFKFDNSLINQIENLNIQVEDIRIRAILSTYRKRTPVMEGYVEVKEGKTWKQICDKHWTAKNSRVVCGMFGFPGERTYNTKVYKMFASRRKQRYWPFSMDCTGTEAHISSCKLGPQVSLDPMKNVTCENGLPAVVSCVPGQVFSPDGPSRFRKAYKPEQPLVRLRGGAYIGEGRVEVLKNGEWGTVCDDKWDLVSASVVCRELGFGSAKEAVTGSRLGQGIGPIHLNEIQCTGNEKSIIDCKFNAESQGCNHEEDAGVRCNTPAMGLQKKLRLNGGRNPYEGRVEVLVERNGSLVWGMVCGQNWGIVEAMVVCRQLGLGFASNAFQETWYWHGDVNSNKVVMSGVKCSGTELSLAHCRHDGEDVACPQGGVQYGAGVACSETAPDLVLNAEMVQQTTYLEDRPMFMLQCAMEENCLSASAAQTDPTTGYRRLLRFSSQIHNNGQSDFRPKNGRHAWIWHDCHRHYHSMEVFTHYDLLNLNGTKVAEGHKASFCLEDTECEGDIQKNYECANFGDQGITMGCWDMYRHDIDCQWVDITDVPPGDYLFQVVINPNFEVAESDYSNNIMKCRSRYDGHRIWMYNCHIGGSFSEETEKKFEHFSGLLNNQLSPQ
To be noted: cited from earlier work.

For data set [5], the target named is LOXL3 (Homo sapiens, UniProt P58215). To be noted: cited from earlier work.
Data set [6] deals with LOXL2-mediated collagen oxidation and cross-linking. To be noted: in vitro; cited from earlier work.
Data set [7] relates to HFF. The data set can be described thus: Viability assay in normal cells. It counts as cell-based. To be noted: human foreskin fibroblast cell line. From the text:
(§1) FIG. 32. 6232 derivatives, 6403 and 6415, show no cytotoxicity in normal cells. Viability assay in normal breast cell line, MCF12A, human foreskin fibroblast cell line, HFF and human endothelial cell line, HUVEC treated with 6403 or 6415.

The subject of data set [8] is HUVEC. The data set is described as follows: Viability assay in normal cells. To be noted: human endothelial cell line. It counts as cell-based.
Source text: as §1

Data set [9] deals with MDA-MB-231 cells embedded in collagen I. The data set is described as follows: ECM crosslinking by collagen and fibronectin immunofluorescence staining. It counts as cell-based, human. Here is the method: FIG. 31. […] A. Inhibition of LOX activity in MDA-MB-231 cells treated with 5 μM of the LOX inhibitors. B. Doxorubicin sensitization with 6232 and its analogs, 6403 and 6415, in 3D collagen-I culture. C. Collagen and fibronectin staining of vehicle or 6232 or 6403 or 6415-treated MDA-MB-231 cells embedded in collagen I. BAPN is used as a positive control.
Immunofluorescence staining of cells was done in μ-Slide 8-well glass bottom chambers (Ibidi, Germany). Cells were fixed with 4% paraformaldehyde for 20 min, permeabilized with 0.5% Triton X-100 for 10 min and blocked in 5% BSA-PBS. Samples were incubated with primary (Collagen I, Fibronectin, F-actin, a-SMA) and secondary Alexa Fluor 647 or 488-labeled antibodies for 1.5 hours at room temperature. Cells were also counterstained with DAPI for 5 min. Images were acquired using ZEN 2012 SP5 (Black) LSM 700 (Carl Zeiss, DE).

The test system of data set [10] is MCF12A. The data set can be described thus: Viability assay in normal cells. It counts as cell-based, human. To be noted: normal breast cell line.
Source text: as §1

For data set [11], the system named is breast cancer models. The note with it: daily by oral gavage, 70 mg/kg; cited from earlier work.
The target in data set [12] is T1, LOXL2. Set-up: Simtuzumab only targets extracellular LOXL2; host or cells: pancreatic cancer patients. The note with it: in combination with gemcitabine; cited from earlier work.

Chain of LOXL3 (P58215 26-753, species assumed): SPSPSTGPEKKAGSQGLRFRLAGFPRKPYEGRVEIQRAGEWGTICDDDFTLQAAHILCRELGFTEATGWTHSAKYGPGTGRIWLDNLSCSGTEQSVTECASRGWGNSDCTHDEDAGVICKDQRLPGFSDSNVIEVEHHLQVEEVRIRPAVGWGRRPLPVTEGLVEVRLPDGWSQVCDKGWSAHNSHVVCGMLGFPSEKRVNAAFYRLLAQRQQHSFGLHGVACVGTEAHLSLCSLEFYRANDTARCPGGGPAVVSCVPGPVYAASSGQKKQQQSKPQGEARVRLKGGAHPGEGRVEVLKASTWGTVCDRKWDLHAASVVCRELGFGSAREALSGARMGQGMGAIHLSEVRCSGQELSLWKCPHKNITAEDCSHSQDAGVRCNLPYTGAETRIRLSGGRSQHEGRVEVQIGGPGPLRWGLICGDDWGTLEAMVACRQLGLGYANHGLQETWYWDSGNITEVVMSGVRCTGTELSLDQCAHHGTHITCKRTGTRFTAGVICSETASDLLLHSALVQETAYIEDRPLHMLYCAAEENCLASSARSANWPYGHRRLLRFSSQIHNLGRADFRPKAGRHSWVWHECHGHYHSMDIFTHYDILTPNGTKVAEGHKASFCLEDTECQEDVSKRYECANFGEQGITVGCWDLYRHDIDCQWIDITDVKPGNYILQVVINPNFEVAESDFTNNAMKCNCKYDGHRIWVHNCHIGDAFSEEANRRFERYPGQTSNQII

On to `NC/C=C(\F)CS(=O)(=O)c1cccc2cccnc12` [PXS-5505], for which the fibrosis entry in data set [1] is “significant reductions in fibrosis”. Further, the tolerability entry in data set [2] is reported as “well tolerated”.

On to `CCCCC(=O)Nc1ccc(Nc2nc(-c3sc(N)nc3C)cs2)cc1` [compound 6426, N-[4-[[4-(2-amino-4-methyl-thiazol-5-yl)thiazol-2-yl]amino]phenyl]pentanamide], for which the IC50 in [3] stood at 2 µM.

As to `Cc1c(-c2cccc(S(=O)(=O)N(C)C)c2)c2ncccc2n1C/C(F)=C/CN.Cl.Cl` [PXS-5153A], the enzyme inhibition entry in data set [4] was “complete and irreversible enzyme inhibition”; in data set [5], “complete and irreversible enzyme inhibition”. The “LOXL2-mediated collagen oxidation and cross-linking” value in data set [6] was “reduce LOXL2-mediated collagen oxidation and cross-linking, in a dose-dependent manner”.

Consider `Cc1nc(N)sc1-c1csc(Nc2ccc(S(N)(=O)=O)cc2)n1` [compound 6405, 4-((2′-amino-4′-methyl-[4,5′-bithiazol]-2-yl)amino)benzenesulfonamide], for which the “cell viability (cytotoxicity in normal cells)” value in [7], in data set [8] and in [10] was “No significant effect on the viability” each time. For the same molecule, the “ECM crosslinking (collagen and fibronectin staining)” value in [9] is on record as “decrease in ECM crosslinking”.

`COCCC(=O)Nc1ccc(Nc2nc(-c3sc(N)nc3C)cs2)cc1` [compound 6425, N-[4-[[4-(2-amino-4-methyl-thiazol-5-yl)thiazol-2-yl]amino]phenyl]-3-methoxy-propanamide]: the IC50 in data set [3] came to 7.5 µM.

As for `CS(=O)(=O)c1cc(-c2ccccc2)cc(S(=O)(=O)c2ccc(CN)s2)c1` [CCT365623], in data set [11], the metastasis result is “reduced metastasis” and the tumor growth result is reported as “decreased tumor growth”.

B1: Simtuzumab: non-competitive LOXL2 targeting humanized monoclonal antibody (antibody, chains of the INN, looked up, V domains shown)
VH: QVQLVQSGAEVKKPGASVKVSCKASGYAFTYYLIEWVRQAPGQGLEWIGVINPGSGGTNYNEKFKGRATITADKSTSTAYMELSSLRSEDTAVYFCARNWMNFDYWGQGTTVTVSS
VL: DIVMTQTPLSLSVTPGQPASISCRSSKSLLHSNGNTYLYWFLQKPGQSPQFLIYRMSNLASGVPDRFSGSGSGTDFTLKISRVEAEDVGVYYCMQHLEYPYTFGGGTKVEIK
In the case of B1, in data set [12], the clinical benefit result is given as “minimal” and the tolerability result was “well-tolerated”.
